# In US20050272649A1, “Conjoint administration of morphogens and ACE inhibitors in treatment of chronic renal failure” (priority 2002, published 2005):
# “Also recorded” adds a separate entry of the source. Like-named read-outs stand apart in the source and are kept apart here.
# Tests used:
# [1] = system: streptozotocin-induced diabetic Sprague-Dawley rats; assay: Streptozotocin-induced diabetic nephropathy model (Example 3); assay type: in vivo, rat; conditions: OP-1 30 and 100 μg/kg, enalapril 50 and 100 mg/L, or combination; diabetic about 140 mg/day
# Procedure: Streptozotocin kills pancreatic β cells and induces type I diabetes (for review, see Cheta et al. (1998) J Pediatr Endocrinol Metab 11:11-9). It is widely used to induce experimental diabetic nephropathy in animals (see FIG. 22). Adult female Sprague-Dawley rats (weighing 200-250 g) were intraperitoneally injected with streptozotocin (60 mg/kg body weight) to induce hyperglycemia. Hyperglycemic rats then received daily injections of insulin to maintain blood glucose between 200-400 mg/dL. At week 16 when renal function declined, animals were treated weekly with OP-1 (10, 30 or 100 μg/kg body weight), enalapril (50 or 100 mg/L in drinking water) or a combination of OP-1 and enalapril. Control animals without streptozotocin treatment were handled in all other ways like treated animals. Animals were sacrificed at week 32 post-streptozotocin treatment.
# [2] = system: alloxan-induced diabetic Sprague-Dawley rats; assay: Alloxan-induced diabetic nephropathy model; assay type: in vivo, rat
# Procedure: Similar to streptozotocin, alloxan kills pancreatic β cells and induces type I diabetes (for review, see Cheta et al. (1998) J Pediatr Endocrinol Metab 11: 11-9). Alloxan is also widely used to induce experimental diabetic nephropathy in animals (FIG. 25). Adult female Sprague-Dawley rats (weighing 200-250 g) were intraperitoneally injected with alloxan (70 mg/kg body weight) to induce hyperglycemia. Renal arteries were clamped just prior to injection to prevent direct nephrotoxicity, and then clamps were removed 5 minutes after injection. At week 16 when renal function declined, animals were treated with OP-1 (10 μg/kg body weight, 3×/week, or 30 μg/kg body weight, 1×/week), enalapril (100 mg/L in drinking water) or the combination of OP-1 and enalapril. Control animals without alloxan treatment were handled in all other ways like treated animals. The treatment duration was 12 weeks. All rats were sacrificed after […].
# [3] = system: streptozotocin diabetic Sprague-Dawley rats; assay type: in vivo; conditions: for GFR (ml/min/100 g bw): inulin clearance at 32 weeks; for mesangial matrix accumulation (in words): PAS / Trichrome histology at 32 weeks; for kidney weight / renal hypertrophy (in words): treatment weeks 16-32, versus vehicle-treated diabetic rats
# Procedure: A long-term streptozotocin model of diabetic nephropathy was used to test and compare the therapeutic actions of BMP-7 with those of Enalapril. The study design was a treatment protocol beginning at 16 weeks when glomerular hypertrophy and proteinuria were established. The effects of therapy with BMP-7 (10, 30, or 100 μg/kg iv, biw) were compared to a maximal dose of Enalapril (20 mg/kg) and to a vehicle control. […] The GFR of 32 week diabetic Enalapril treated rats was 0.58±0.06 (not significant compared to vehicle treated and sham injected rats 0.55±0.02).
# Animals: Female Sprague-Dawley rats 10 weeks of age weighing 190-220 g were used. Animals were allowed free access to standard rat chow and to tap water. Diabetes mellitus was induced by a single tail-vein injection of Streptozotocin (STZ 62 mg/kg of body weight, Sigma chemical company, St. Louis, Mo.) dissolved in normal saline at day 0. The diabetic state was confirmed 72 hours later by the determination of blood glucose concentration>300 mg/dl. From day 3, all the diabetic rats received daily subcutaneous injections of 1.0-7.0 u human recombinant long-acting insulin injection (Eli Lilly & Co., Indianapolis, Ind.) as required to maintain the blood glucose concentration between 300-500 mg/dl. Tail blood glucose levels were measured twice a week with an Accu—Chek™ Advantage meter (Roche Diagnostic Corporation, Indianapolis, Ind.). Body weights were taken once a week. Food and water intake were monitored daily.
# Renal hypertrophy was well developed at 16 weeks prior to treatment with vehicle, BMP-7, or enalapril. […], animals were divided into 8 groups. Group 1 were 16 weeks of DM. Group 2 were 16 weeks normal controls. Group 3 DM animals were treated with tail-vein injection of vehicle twice a week for 16 weeks. Group 4, Group 5, and Group 6 were DM animals treated with tail-vein injections of BMP-7 100, 30, and 10 μg/kg body weight respectively twice a week for 16 weeks. Group 7 were treated with Enalapril 20 mg/kg through the drinking water for 16 weeks. […] Group 1 and Group 2 animals were sacrificed at 16 weeks. The others were sacrificed at 32 weeks. All treatments began at 16 weeks and continued through 32 weeks. Glomerular filtration rate (GFR), urine albumin excretion, kidney weight, glomerular area, mesangial matrix area, interstitial volume, monocyte and macrophage infiltration, thickness of glomerular basement membrane (GBM) and glomerulosclerosis were measured.
# Renal Function: In all animals, glomerular filtration rate (GFR) was measured as the clearance of inulin. Rats were anesthetized with a Ketamine/Xylozine cocktail. A catheter was inserted into the femoral vein under a dissecting microscope for infusion. Another catheter was placed into the femoral artery for collecting blood samples. Urine was collected by bladder cannulation.
# After the completion of surgery, a bolus of 2 ml/kg of 3% inulin (Cypros Pharmaceutical Corp, W. Carlsbad, Calif.) and 0.2% p-aminohippurate (PAH) in normal saline was infused as a priming load, followed by a sustaining infusion of the same solution at the rate of 8 ml/h·kg. Urine collection was initiated for three 20-minute collection periods after an hour of equilibration. An arterial blood sample was obtained during each clearance period. Plasma and urine were analyzed for inulin.
# Urine volume was measured and urinary protein concentration was determined with a Bio-Rad protein assay.
# Preparation of Kidneys: After the clearance studies, the rats were euthanized. Both kidneys were rapidly removed and placed in ice-cold phosphate buffered saline (PBS). Kidneys were weighed and then sliced on a cold glass plate. Two 2 mm coronal sections were immersed in Histochoice and in 10% buffered formalin. Kidney sections were embedded in paraffin and cut at 3 μm and stained with hematoxylin and eosin, Gomori's Trichrome and periodic acid Schiff (PAS).
# Renal Morphology: The morphometric analysis was done in a blind manner. […]
# [4] = Enalapril 20 mg/kg in drinking water (100 mg/l)
# [5] = Enalapril 20 mg/kg in drinking water (100 mg/l), weeks 16-32
# [6] = Enalapril 20 mg/kg in drinking water (100 mg/l), weeks 16-32, at 32 weeks
# [7] = treatment weeks 16-32, listed as Enalapril
smiles,measurement,setting,value
"CCOC(=O)[C@H](CCc1ccccc1)N[C@@H](C)C(=O)N1CCC[C@H]1C(=O)O [enalapril, N-(1-ethoxycarbonyl-3-phenylpropyl)-L-ananyl-L-proline, reference compound]",proteinuria level,[1],almost normal level; also recorded: significantly reduced the proteinuria level
same,proteinuria level (in words),[2]; 12 weeks of treatment,reduces the proteinuria level; also recorded: reduce the preteinuria level
same,serum creatinine level (in words),[2]; 12 weeks of treatment,decreases the serum creatinine level
same,serum creatinine level (in words),"[2]; 12 weeks of treatment, listed as elalapril",reduces the serum creatinine level at a lesser degree
same,proteinuria level,"[2]; enalapril 100 mg/L drinking water alone, or combination of OP-1 and enalapril, 12 weeks, diabetic about 180",~140 mg/dL/24 hr
same,renal BMP-7 expression (in situ hybridization),[3]; 32 weeks,restored BMP-7 expression at high levels in the collecting duct; also recorded: restored BMP-7 expression in its normal pattern at high levels; also recorded: restored the normal distribution of BMP-7 expression
same,renal Wnt4 expression (in situ hybridization),[3]; 32 weeks,without affecting Wnt4 expression; also recorded: do not affect Wnt4 expression; also recorded: had no effect on Wnt4 expression
same,monocyte/macrophage tubulointerstitial infiltration,"[3]; ED-1 positive cells, 32 weeks",decreased the tubulointerstitial infiltration
same,Cause-Mortality hypoglycemia,[3]; [4],1/10
same,Cause-Mortality ketoacidosis,[3]; [4],1/10
same,Cause-Mortality unknown,[3]; [4],1/10
same,Body Weight (g) End,[3]; [5],294.9 ± 4.4 g
same,Body Weight (g) Weight Gain,[3]; [5],78.7 ± 5.9 g
same,"Protein Ex (mg/day), urine protein excretion",[3]; [6],33.59 ± 7.58 mg/day
same,kidney weight,[3]; [6],1.09 ± 0.04 g
same,kidney weight,"[3]; Enalapril 20 mg/kg in drinking water (100 mg/l), weeks 16-32, at 32 weeks, listed as E",1.09 ± 0.04 g
same,Mortality,"[3]; Enalapril 20 mg/kg in drinking water (100 mg/l), weeks 16-32, deaths/animals",3/10
same,GFR (ml/min/100 g bw),"[3]; Enalapril 20 mg/kg in drinking water (100 mg/l), weeks 16-32, listed as E",0.58 ± 0.06 ml/min/100 g bw
same,GFR (ml/min/100 g bw),"[3]; Enalapril 20 mg/kg in drinking water (100 mg/l), weeks 16-32, listed as Enalapril",0.58±0.06 ml/min/100 g bw
same,cortical interstitial area / volume,"[3]; Enalapril 20 mg/kg, weeks 16-32, DM vehicle 13.1±0.7%",10.3±0.4%
same,mesangial matrix accumulation (in words),[3],more mesangial matrix accumulation
same,mesangial matrix accumulation (in words),[3]; listed as Enalapril,less effective than intermediate or high dose BMP-7 in eliminating accumulation of mesangial matrix
same,glomerulosclerosis (in words),[3]; treatment weeks 16-32,decreased glomerular sclerosis; also recorded: markedly reduced
same,urine protein excretion / proteinuria / albuminuria (in words),[3]; treatment weeks 16-32,reversed
same,GFR (in words),"[3]; treatment weeks 16-32, versus vehicle-treated diabetic and normal rats",normal or greater; also recorded: restored GFR to normal or slightly above normal
same,kidney weight / renal hypertrophy (in words),[3],partially reversed diabetic renal hypertrophy
same,kidney weight / renal hypertrophy (in words),[3]; listed as Enalapril,equal in partially reversing kidney hypertrophy; also recorded: equally effective
same,glomerular area / glomerular hypertrophy (in words),[3]; [7],significantly decreased; also recorded: equally effective
same,glomerulosclerosis (in words),[3]; [7],less effective in preventing glomerulosclerosis; also recorded: less so by Enalapril
same,interstitial volume (in words),[3]; [7],significantly decreased; also recorded: equally effective
same,systolic blood pressure (tail artery cuff),[3]; [7],controlled hypertension throughout the course of therapy; also recorded: reversed the hypertension of the diabetic rats; also recorded: normalized blood pressure during the entire 16 week course of therapy; also recorded: restored blood pressure to normal
